# Publication PMC5424180, “The molecular mechanism of the type IVa pilus motors” (Nature Communications, 2017)
# Assays:
# PilB (PilBGm) [1] = biological target: T1, PilB (PilBGm) (Geobacter metallireducens, UniProt Q39VU7); assay: X-ray crystallography, […] Å (anisotropic); settings: Mg2+; pH 7.6; 20 °C; no exogenous nucleotide, ADP co-purified from E. coli; four closed ATP binding sites
# T1 construct: hexamer; residues 181-568 (N2D + CTD) built; primer-encoded start MQASRL, end TVADD
# PilB (PilBGm) [2] = biological target: T1, PilB (PilBGm); assay: X-ray crystallography, […] Å; settings: Mg2+; pH 7.0; 20 °C; non-saturating AMP-PNP; ATP binding sites (closed full occupancy, open ~70%)
# [3] = biological target: PilB from Geobacter metallireducens (Geobacter metallireducens); assay: crystal structure; PilB:ADP; no exogenous nucleotide added; 13% PEG3350, 0.1 M magnesium formate, 0.1 M Tris pH 7.6, vapour diffusion at 20 °C; three chains in the asymmetric unit, hexamer from crystal packing
# [4] = biological target: PilB from Geobacter metallireducens (Geobacter metallireducens); assay: crystal structure; PilB:AMP-PNP; non-saturating AMP-PNP (50 μM final to 120 μM PilB); 11% PEG3350, 0.1 M magnesium formate, 0.1 M Tris pH 7.0, vapour diffusion at 20 °C; six chains in the asymmetric unit
# T1 sequence (Q39VU7 entry or part of it): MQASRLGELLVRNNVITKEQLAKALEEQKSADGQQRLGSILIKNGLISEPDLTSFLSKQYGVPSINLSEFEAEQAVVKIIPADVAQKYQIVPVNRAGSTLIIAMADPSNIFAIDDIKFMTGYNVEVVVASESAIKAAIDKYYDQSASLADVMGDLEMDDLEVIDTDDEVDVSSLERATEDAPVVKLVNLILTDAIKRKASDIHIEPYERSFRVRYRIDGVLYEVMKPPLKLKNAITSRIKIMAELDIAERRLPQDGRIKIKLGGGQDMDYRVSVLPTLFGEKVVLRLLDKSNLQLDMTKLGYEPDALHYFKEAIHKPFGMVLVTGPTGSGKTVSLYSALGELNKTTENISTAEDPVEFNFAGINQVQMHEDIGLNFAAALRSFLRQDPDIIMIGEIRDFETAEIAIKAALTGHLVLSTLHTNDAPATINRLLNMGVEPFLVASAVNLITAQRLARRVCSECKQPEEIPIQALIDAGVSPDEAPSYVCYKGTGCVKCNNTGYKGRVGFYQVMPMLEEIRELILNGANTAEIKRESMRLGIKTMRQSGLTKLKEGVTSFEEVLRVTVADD
compound,measurement,setting,value
Nc1ncnc2c1ncn2[C@@H]1O[C@H](COP(=O)(O)OP(=O)(O)O)[C@@H](O)[C@H]1O [ADP],"X-ray crystallography, 3.4 Å (anisotropic)",PilB (PilBGm) [1],"In four sites, ADP and magnesium best fit the electron density"
Nc1ncnc2c1ncn2[C@@H]1O[C@H](COP(=O)(O)OP(=O)(O)NP(=O)(O)O)[C@@H](O)[C@H]1O [AMP-PNP],"X-ray crystallography, 2.3 Å",PilB (PilBGm) [2],"Between two packing units, AMP-PNP, magnesium, and several highly ordered waters best fit"
PilB from Geobacter metallireducens (enzyme),stoichiometry N,[3],6
same,stoichiometry N,[4],6
